From patent publication US20020187514A1 (priority 1999, published 2002) come the findings set out here.

Counter-ions that a name gives are not always drawn.

For test [1], the target named is T1, Histamine, H1 (Bos taurus, UniProt P30546).
T1 construct: no other source notation after assay name denotes animal cell or animal tissue source; from tissue; host or cells: animal cell or animal tissue, not specified
Description: Histamine, H1; [3H]Pyrilamine. It counts as binding.

Test [2] addresses Imidazoline, I1. Description: Imidazoline, I1; [125I]-Clonidine. To be noted: reference compound, QA/QC; read-out: Ref Kj. It counts as binding.
In test [3] the target is Glutamate, NMDA Agonist Site. Description: Glutamate, NMDA Agonist Site; [3H]CGP 39653. The note with it: reference compound, QA/QC; read-out: Ref Kj. It counts as binding.
Test [4] deals with Glutamate, NMDA, Glycine (Stry-insens Site). It counts as binding. To be noted: read-out: Ref Kj.
Test [5] has as its target Imidazoline, I2, central. Description: Imidazoline, I2, central; [3H]2-BFI. It counts as binding. To be noted: reference compound, QA/QC; read-out: Ref Kj.
Test [6] addresses Histamine, H3. Description: Histamine, H3; [3H]N-a-MeHistamine. It counts as binding. The note with it: reference compound, QA/QC; read-out: Ref Kj.
In test [7] the target is Melatonin. As to the kind of experiment: Melatonin; [125I]-2-Iodomelatonin. Type of test: binding. The note with it: reference compound, QA/QC; read-out: Ref Kj.
The target in test [8] is Glucocorticoid (UniProt P06536). To be noted: read-out: Ref Kj.
Glucocorticoid, sequence (P06536 whole entry): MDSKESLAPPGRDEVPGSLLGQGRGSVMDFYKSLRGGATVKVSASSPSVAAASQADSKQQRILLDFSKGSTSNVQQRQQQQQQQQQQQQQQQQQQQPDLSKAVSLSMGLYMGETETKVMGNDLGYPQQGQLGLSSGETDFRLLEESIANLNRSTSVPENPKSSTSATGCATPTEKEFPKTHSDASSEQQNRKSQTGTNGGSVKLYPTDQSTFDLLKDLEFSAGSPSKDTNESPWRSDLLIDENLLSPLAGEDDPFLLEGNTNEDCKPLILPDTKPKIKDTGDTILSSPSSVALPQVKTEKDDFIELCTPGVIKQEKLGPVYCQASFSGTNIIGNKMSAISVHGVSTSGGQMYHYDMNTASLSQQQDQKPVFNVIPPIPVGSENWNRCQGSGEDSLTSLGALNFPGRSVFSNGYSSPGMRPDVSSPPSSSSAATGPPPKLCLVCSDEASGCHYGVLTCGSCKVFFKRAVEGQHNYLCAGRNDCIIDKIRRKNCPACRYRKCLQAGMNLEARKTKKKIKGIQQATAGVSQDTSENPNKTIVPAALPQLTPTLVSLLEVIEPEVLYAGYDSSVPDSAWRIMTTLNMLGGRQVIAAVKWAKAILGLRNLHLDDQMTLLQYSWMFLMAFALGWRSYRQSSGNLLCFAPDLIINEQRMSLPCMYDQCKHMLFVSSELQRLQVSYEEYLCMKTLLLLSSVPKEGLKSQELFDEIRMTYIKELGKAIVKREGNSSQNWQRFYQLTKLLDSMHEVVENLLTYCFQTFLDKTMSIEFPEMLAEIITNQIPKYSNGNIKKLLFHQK

T1 sequence (P30546 whole entry): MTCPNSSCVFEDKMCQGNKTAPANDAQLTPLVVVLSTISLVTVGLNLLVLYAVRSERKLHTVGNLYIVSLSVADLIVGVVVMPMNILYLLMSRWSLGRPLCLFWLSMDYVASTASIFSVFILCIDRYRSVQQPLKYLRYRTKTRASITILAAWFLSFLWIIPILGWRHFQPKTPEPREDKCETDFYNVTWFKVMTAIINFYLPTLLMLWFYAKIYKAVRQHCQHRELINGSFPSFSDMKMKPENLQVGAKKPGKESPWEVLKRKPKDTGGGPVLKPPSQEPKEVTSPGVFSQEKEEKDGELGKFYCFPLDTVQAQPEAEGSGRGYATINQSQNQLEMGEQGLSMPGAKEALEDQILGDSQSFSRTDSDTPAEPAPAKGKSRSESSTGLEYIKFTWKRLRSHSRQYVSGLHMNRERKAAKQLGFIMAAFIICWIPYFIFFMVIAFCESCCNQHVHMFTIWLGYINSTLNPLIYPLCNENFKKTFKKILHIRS

On to `Cc1ccc(/C(=C\CN2CCCC2)c2ccccn2)cc1` [Triprolidine HCl], for which, in test [1], the Ki worked out at 3.6 nM. With `Clc1cc(I)cc(Cl)c1NC1=NCCN1` [Iodoclonidine], the Ki in test [2] turned out to be 7.89 nM. Take `CN[C@H](CC(=O)O)C(=O)O` [NMDA]: the Ki in test [3] came out at 13100 nM.

Take `O=C(O)/C(=C/c1c(C(=O)O)[nH]c2cc(Cl)cc(Cl)c12)c1ccccc1` [MDL-105,519]: the Ki in test [4] worked out at 16.3 nM.

As for `c1ccc2oc(C3=NCCN3)cc2c1` [2-BFI], the Ki in test [5] was 0.054 nM.

`CNCCc1cnc[nH]1` [N-a-Methylhistamine (NAMH), N-a-Methylhistamine]: in test [6], the Ki worked out at 1.31 nM. Turning to `COc1ccc2[nH]c(I)c(CCNC(C)=O)c2c1` [2-Iodomelatonin], the Ki in test [7] is […]. Take `C[C@]12C=CC(=O)C=C1CC[C@H]1[C@@H]3C[C@@H](O)[C@](O)(C(=O)CO)[C@@]3(C)C[C@H](O)[C@@]12F` [Triamcinolone]: the Ki in test [8] came out at 1.74 nM.
